Assay [1] deals with Wnt ligand-induced signaling. Description: Wnt-responsive Super-TOpFlash (STF) luciferase reporter gene assay in HEK293 cells. Particulars: Homo sapiens, Wnt3A condition medium induced. Format: cell-based. As for the experimental part:
Compound activity in inhibiting Wnt ligand-induced signaling was measured using a Wnt-responsive Super-TOpFlash (STF) luciferase reporter gene assay in HEK293 cells. On day 1 of the assay, cells were plated at a density of 8000 cells per well of 384-well plate in 25 μl medium containing 5% fetal bovine serum (FBS). On the second day, […] condition medium (CM) produced from mouse L cells was added to the cells to induce Wnt signaling, followed by addition of 5 μL of compounds each well in 10-point serial dilution. On the third day, the luciferase activity was measured by the Bright-Glo™ Luciferase Assay System following manufacture's protocol (Promega, E2620). The Inhibition was calculated as: (Maximum Wnt-induced signaling−Sample)/(Maximum Wnt-induced signaling−Background)*100. “Maximum Wnt-induced signaling” is the STF signal level induced by 20% Wnt3A CM without compound; and “Background” is the STF signal level without the addition of Wnt3A CM or compound.
Background: Reporter assays use an easily measured gene product as a stand-in for the process of interest.

Assay [2] has as its target tankyrase 2 protein PARP domain, TNKS2P (GST-tagged) (Homo sapiens (Human), UniProt Q9H2K2). Description: TNKS2 autoparsylation (AP) biochemical assay, LC/MS detection of nicotinamide. Conditions: 20 nM enzyme, 250 μM NAD+, 60 min room temperature.
The test system of assay [3] is Axin2 protein. In words: Cellular ELISA assay for stabilizing the Axin2 protein in SW480 cells. Format: cell-based. Conditions: Homo sapiens, 24 hrs treatment, read-out: Axin AC50. As for the experimental part:
Compound activity in stabilizing the Axin2 protein was measured by Sandwich Enzyme-Linked Immuosorbent (ELISA) assay in the colorectal cell line SW480. 30,000 SW480 cells were seeded per well in 96-well plate and incubated overnight prior to compound treatment. Cells were then treated with compounds in 6-point dilution starting at 10 μM for 24 hrs. Cells were then washed with 100 μL of cold Phosphate Buffer Saline (PBS), and lysed in 125 μl of cold 1× lysis buffer (Cell Signaling Technology, 9803) supplemented with Protease inhibitor (Roche, 11836170) and Phosphatase inhibitors (Sigma, P2850, P5726). For the ELISA assay, anti Axin-2 capture antibody (Strategic Diagnostics) antibody was diluted to a concentration of 1 μg/ml (1:1000) in Carbonate Coating buffer, pH 9.2 (Sigma, C3041-50CAP). 100μ of the diluted anti Axin-2 capture antibody per well was then used to coat the 96-well ELISA plate (Thermo Electron Corp., MicroLite 1 flat bottom plate #7571) overnight at 4° C. Plates were then washed three times with 300 μl/well of wash solution, PBST20 (PBS+0.05% Tween), and blocked with 300 μl/well 1% BSA/PBS (BSA, Millipore Probumin #82-045-1) for 1.5 hours at room temperature while shaking gently. After blocking, plates were then washed three times with 300 μl/well of wash solution. 100 μL of prepared SW480 cell lysate was then added to each well and incubated at room temperature for 2 hours while shaking gently. After washing, 100 μL of Biotinylated anti-Axin2 antibody (CST, 2151) was added to each well and incubated room temperature for 2 hours. 100 μL of Streptavidin-HRP (R&D systems, DY998) diluted 1:200 in 1% BSA/PBS was then added in each well and incubate for 30 mins at R/T in the dark. Signal was detected by Chemiluminescence (Pierce SuperSignal ELISA Femto #3704), and measured on PerkinElmer Wallac 1420 plate reader.
In general terms: An ELISA detects its analyte on a solid surface through an enzyme-linked reagent.

For assay [4], the system named is Non-small lung cancer ABC-1 cells. In words: Cellular proliferation assay, ABC-1 cells (CellTiter-Glo). The format is cell-based. Conditions: Homo sapiens, 72 h, 3 days of compound treatment. As for the experimental part: Non-small lung cancer ABC-1 cells were plated at 5000 cells per well in 96-well plates and treated with 8 serial compound dilutions starting from 10 μM as the highest concentration. Viable cells were measured after 3 days of compound treatment using the CellTiter-Glo assay (Promega, G7570). Assay was performed following the manufacture protocol.
On the technique in general: ATP-based viability assays read luminescence as a measure of living cells.

In assay [5] the target is Human PARP1 (Homo sapiens (Human), UniProt P09874). Description: PARP1 autoparsylation biochemical assay, LC/MS detection of nicotinamide. Conditions: read-out: PARP1 IC50, 20 nM enzyme, 250 μM NAD+, 60 min room temperature.
Chain of Human PARP1 (P09874 whole entry, the tested form may be a part): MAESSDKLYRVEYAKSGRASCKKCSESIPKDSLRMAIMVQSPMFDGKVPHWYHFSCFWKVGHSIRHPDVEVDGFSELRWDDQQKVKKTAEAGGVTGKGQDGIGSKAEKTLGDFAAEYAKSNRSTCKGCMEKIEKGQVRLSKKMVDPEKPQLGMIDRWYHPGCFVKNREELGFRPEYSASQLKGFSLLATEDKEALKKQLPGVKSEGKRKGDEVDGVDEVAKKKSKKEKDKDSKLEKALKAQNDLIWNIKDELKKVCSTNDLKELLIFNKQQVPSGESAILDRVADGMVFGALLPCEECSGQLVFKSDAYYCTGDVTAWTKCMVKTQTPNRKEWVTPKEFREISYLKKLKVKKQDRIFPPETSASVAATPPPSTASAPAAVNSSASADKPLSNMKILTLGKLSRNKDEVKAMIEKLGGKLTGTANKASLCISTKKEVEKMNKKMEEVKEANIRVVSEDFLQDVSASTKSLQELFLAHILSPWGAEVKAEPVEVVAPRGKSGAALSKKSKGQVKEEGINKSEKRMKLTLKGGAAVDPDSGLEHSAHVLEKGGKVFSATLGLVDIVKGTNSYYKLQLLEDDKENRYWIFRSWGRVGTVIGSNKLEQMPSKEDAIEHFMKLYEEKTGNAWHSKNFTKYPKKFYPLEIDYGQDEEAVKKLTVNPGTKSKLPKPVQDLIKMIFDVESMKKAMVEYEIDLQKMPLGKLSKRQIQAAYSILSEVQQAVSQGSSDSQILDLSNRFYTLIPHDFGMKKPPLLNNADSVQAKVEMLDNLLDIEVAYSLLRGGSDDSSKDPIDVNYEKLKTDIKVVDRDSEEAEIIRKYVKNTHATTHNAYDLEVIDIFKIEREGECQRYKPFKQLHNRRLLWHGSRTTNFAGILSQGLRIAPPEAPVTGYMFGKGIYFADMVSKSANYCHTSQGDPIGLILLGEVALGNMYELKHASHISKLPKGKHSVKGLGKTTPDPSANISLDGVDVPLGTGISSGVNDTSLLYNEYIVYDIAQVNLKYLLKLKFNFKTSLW
Assay [6] concerns the target human tankyrase 1 PARP catalytic domain, TNKS1P (GST-tagged) (Homo sapiens (Human), UniProt O95271). In words: TNKS1 autoparsylation (AP) biochemical assay, LC/MS detection of nicotinamide. Conditions: 20 nM enzyme, 250 μM NAD+, 60 min room temperature. As for the experimental part: The human tankyrase 1 PARP catalytic domain, TNKS1P, was cloned into a pDONR221 vector using the Invitrogen Gateway Technology. This entry clone was then subcloned into the destination vector pDEST20 to obtain the N-terminal Glutathione S-transferase (GST)-tagged fusion protein.
The autoparsylation activity of the TNKS 1/2 or PARP1/2 enzymes was measured by the liquid chromatography-mass spectrometry (LC/MS) detection of nicotinamide as readout. Compound activity in inhibiting the TNKS and PARP autoparsylation was evaluated by IC50 measurements.

The target in assay [7] is PARP2 (Mus musculus (Mouse), UniProt O88554). In words: PARP2 autoparsylation biochemical assay, LC/MS detection of nicotinamide. Particulars: read-out: PARP2 Ic50, 20 nM enzyme, 250 μM NAD+, 60 min room temperature.
Chain of PARP2 (O88554 whole entry): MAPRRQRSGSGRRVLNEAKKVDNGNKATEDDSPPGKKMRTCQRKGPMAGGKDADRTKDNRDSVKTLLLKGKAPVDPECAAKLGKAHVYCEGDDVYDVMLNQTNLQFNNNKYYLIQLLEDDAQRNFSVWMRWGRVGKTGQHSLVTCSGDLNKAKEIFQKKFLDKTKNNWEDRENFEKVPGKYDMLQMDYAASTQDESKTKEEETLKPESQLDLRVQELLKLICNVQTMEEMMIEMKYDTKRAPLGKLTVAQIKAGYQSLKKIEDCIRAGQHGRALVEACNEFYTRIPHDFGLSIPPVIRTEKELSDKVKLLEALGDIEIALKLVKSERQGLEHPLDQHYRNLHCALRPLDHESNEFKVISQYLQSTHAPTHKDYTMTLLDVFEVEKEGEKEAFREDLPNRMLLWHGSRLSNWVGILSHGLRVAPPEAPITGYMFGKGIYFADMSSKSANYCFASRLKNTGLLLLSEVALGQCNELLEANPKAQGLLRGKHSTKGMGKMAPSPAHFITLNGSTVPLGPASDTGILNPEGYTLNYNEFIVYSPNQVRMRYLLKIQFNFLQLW
The subject of assay [8] is Herpes Simplex Virus (HSV). Particulars: cited from earlier work.

Chain of human tankyrase 1 PARP catalytic domain, TNKS1P (GST-tagged) (O95271 1112-1317): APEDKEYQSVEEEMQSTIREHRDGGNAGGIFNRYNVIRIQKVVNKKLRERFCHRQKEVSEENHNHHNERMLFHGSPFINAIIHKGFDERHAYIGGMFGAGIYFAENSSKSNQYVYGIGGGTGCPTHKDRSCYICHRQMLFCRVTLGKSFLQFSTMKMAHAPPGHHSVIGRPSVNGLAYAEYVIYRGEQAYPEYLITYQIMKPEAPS
Chain of tankyrase 2 protein PARP domain, TNKS2P (GST-tagged) (Q9H2K2 959-1164): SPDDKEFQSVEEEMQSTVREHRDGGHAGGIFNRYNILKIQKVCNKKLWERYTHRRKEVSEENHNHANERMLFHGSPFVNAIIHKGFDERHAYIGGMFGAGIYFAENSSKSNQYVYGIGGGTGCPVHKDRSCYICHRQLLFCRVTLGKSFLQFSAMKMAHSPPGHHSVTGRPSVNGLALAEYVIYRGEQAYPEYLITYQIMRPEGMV

`COc1ccc(C(=O)C2CCN(C3CCN(Cc4nc5c(c(=O)[nH]4)CCC5)C3=O)CC2)cc1` (stereo not shown) [Example 21, 2-((3-(4-(4-methoxybenzoyl)piperidin-1-yl)-2-oxopyrrolidin-1-yl)methyl)-6,7-dihydro-3H-cyclopenta[d]pyrimidin-4(5H)-one]: the IC50 (as a rule, the concentration that inhibits the measured activity by half) in assay [1] is 0.0011 ± 0.00017 µM; in assay [2], 0.017 ± 0.002 µM; in assay [4] it was 0.018 µM; in assay [5], 29.6 ± 2.8 µM; in assay [6], 0.034 ± 0.001 µM; in assay [7], 10.7 ± 0.2 µM. Further, in assay [3], the AC50 – broadly, the concentration giving half of the maximal activity seen – came out at 0.007 ± 0.002 µM.

With `CCc1cc(=O)[nH]c(CN2CCC(N3CCC(C(=O)c4ccc(OC)cc4)CC3)C2=O)n1` (stereo not shown) [Example 24, 6-Ethyl-2-{3-[4-(4-methoxy-benzoyl)-piperidin-1-yl]-2-oxo-pyrrolidin-1-ylmethyl}-3H-pyrimidin-4-one], the 50% inhibitory concentration (IC50) in assay [1] was 0.0104 ± 0.0023 µM; in assay [2] it was 0.053 ± 0.005 µM; in assay [4], 0.183 µM; in assay [5], above 19 µM; in assay [6], 0.115 ± 0.004 µM; in assay [7], above 19 µM. Further, in assay [3], the AC50 was determined as 0.104 ± 0.015 µM.

Turning to `COc1ccc(C(=O)C2CCN(C3CCN(Cc4ncc(C)c(=O)[nH]4)C3=O)CC2)cc1` (stereo not shown) [Example 25, 2-{3-[4-(4-Methoxy-benzoyl)-piperidin-1-yl]-2-oxo-pyrrolidin-1-ylmethyl}-5-methyl-3H-pyrimidin-4-one], the concentration for half-maximal inhibition (IC50) was 0.0034 ± 0.0015 µM in assay [1]; 0.036 ± 0.006 µM in assay [2]; 0.117 µM in assay [4]; above 19 µM in assay [5]; 0.072 ± 0.002 µM in assay [6]; above 19 µM in assay [7]. Further, the half-maximal activity concentration (AC50) in assay [3] was 0.046 ± 0.003 µM.

On to `COc1ccc(C(=O)C2CCN(C3CCN(Cc4nc(C)c(C)c(=O)[nH]4)C3=O)CC2)cc1` (stereo not shown) [Example 26, 2-{3-[4-(4-Methoxy-benzoyl)-piperidin-1-yl]-2-oxo-pyrrolidin-1-ylmethyl}-5,6-dimethyl-3H-pyrimidin-4-one], for which the IC50 in assay [1] is 0.0041 ± 0.0021 µM; in assay [2], 0.026 ± 0.001 µM; in assay [4] it was 0.043 µM; in assay [5] it was above 19 µM; in assay [6], 0.047 ± 0.002 µM; in assay [7], above 19 µM. Besides, the AC50 in assay [3] worked out at 0.021 ± 0.003 µM.

In the case of `COc1ccc(C(=O)C2CCN([C@H]3CCN(Cc4nc5ccccc(=O)c5[nH]4)C3=O)CC2)cc1C` [Example 28, 2-{(S)-3-[4-(4-Methoxy-3-methyl-benzoyl)-piperidin-1-yl]-2-oxo-pyrrolidin-1-ylmethyl}-3H-cycloheptaimidazol-4-one], the IC50 in assay [1] turned out to be 0.0015 ± 0.0005 µM; in assay [2] it was 0.007 ± 0.001 µM; in assay [4], 0.0008 ± 0.0009 µM; in assay [5], 20.2 ± 1.5 µM; in assay [6] it was 0.0195 ± 0.0035 µM; in assay [7], 2.9 ± 0.3 µM. Further, in assay [3], the concentration at half-maximal activity (AC50) came to 0.00046 ± 0.0002 µM.

With `Oc1nc(-c2ccc(C(F)(F)F)cc2)nc2c1CSCC2` [XAV939], in assay [8], the HSV viral growth result is listed as “decreased viral growth” and the “HSV viral protein expression” value is reported as “suppressed HSV viral protein expression”.

The values above are taken from patent US9163003B2, “4-piperidinyl compounds for use as tankyrase inhibitors” (NOVARTIS AG, priority 2011, dated 2015).
